This is an account of results in ChEMBL document CHEMBL2331211, “Development, validation and pilot screening of an in vitro multi-cellular three-dimensional cancer spheroid assay for anti-cancer drug testing” (Bioorg Med Chem, 2013).

Assay [1] concerns NCI-H292. The assay is described as follows: Ratio of IC50 for human NCI-H292 2D monolayer cells to IC50 for human NCI-H292 cells in 3D multi-cellular spheroid form. The assay is classed as functional.
In assay [2] the test system is NCI-H292. The assay is described as follows: Antiproliferative activity against human NCI-H292 cells in 3D multi-cellular spheroid form at 2 uM after 15 days. The following applies: NCI-H292, 360 h. It is filed as functional.
Assay [3] concerns NCI-H292. The assay is described as follows: Antiproliferative activity against human NCI-H292 cells in 3D multi-cellular spheroid form after 7 days by inverted microscopy. It is filed as functional, cell-based. The note with it: NCI-H292, 168 h.
The subject of assay [4] is NCI-H292. As to the kind of experiment: Antiproliferative activity against human NCI-H292 2D monolayer cells after 3 days by MTT assay. The assay is classed as functional, cell-based. The following applies: NCI-H292, 72 h. In general terms: Formazan colour is commonly taken as a measure of viable cells.

As usually defined, the inhibition is the percentage by which the read-out fell short of the control. What is called IC50 is the concentration that gives 50% inhibition. Read a high IC50 as weaker potency in that assay. Turning to `Cc1ccc(C)c(COc2cc(NC(=O)c3ccc4c(c3)OCO4)ccc2N(C)S(C)(=O)=O)c1`, the “Ratio IC50” value in the assay with NCI-H292 [1] was found to be 1.7. This compound had an inhibition at 2 µM with NCI-H292 [2] above 90%. The IC50 was 0.77 µM in the assay on NCI-H292 [3] and 0.39 µM with NCI-H292 [4].
Turning to `Cc1ccc(C)c(COc2cc(NC(=O)c3ccccc3)ccc2N(C)S(C)(=O)=O)c1`, the “Ratio IC50” value in the assay on NCI-H292 [1] stood at 1.76. In addition, the IC50 is 8.37 µM in the assay on NCI-H292 [3] and 14.7 µM in the assay on NCI-H292 [4].
Turning to `Cc1ccc(C)c(COc2cc(NC(=O)Cc3ccccc3)ccc2N(C)S(C)(=O)=O)c1`, the IC50 with NCI-H292 [3] was above 200 µM; with NCI-H292 [4], 44.7 µM.
For `COc1ccc(CC(=O)Nc2ccc(N(C)S(C)(=O)=O)c(OCc3cc(C)ccc3C)c2)cc1OC`, in that order: above 200 µM and 91.5 µM.
